Experimental data taken from patent publication EP0908457B1, “3-(1,2-benzisothiazol- and isoxazol-5-Y1)-2,4(1H,3H)-pyrimidinedione or thione and 3-(1,2-benzisothiazol- and isoxazol-5-y1)-4(3H)-pyrimidinone or thione herbicidal agents” (BASF AKTIENGESELLSCHAFT, priority 1997, dated 1999).

Assays:
Cyperus iria = experiment: Preemergence weed control under flooded paddy conditions, CYPIR (Rice Flatsedge); type: in vivo; settings: preemergence, flooded paddy, rated three to four weeks after treatment
[1] = tested on: Echinochloa oryzoides (Ard.) Fritsch.; experiment: Preemergence weed control under flooded paddy conditions, ECHORC (Watergrass (Calif.)); type: in vivo; settings: preemergence, flooded paddy, rated three to four weeks after treatment
[2] = tested on: Cyperus serotinus, Rottb.; experiment: Preemergence weed control under flooded paddy conditions, CYPSE (Flatsedge); type: in vivo; settings: preemergence, rated three to four weeks after treatment
Sagittaria pygmaea, L. = experiment: Preemergence weed control under flooded paddy conditions, SAGPY (Arrowhead (Pygmaea)); type: in vivo; settings: preemergence, flooded paddy, rated three to four weeks after treatment
[3] = tested on: Oryza sativa, (L.) Tebonnet; experiment: Rice tolerance to post-transplant applications under flooded paddy conditions (Example 187), ORYSAT (Rice, Tebonnet); settings: rated three to four weeks after treatment
[4] = tested on: Monochoria vaginalis, Presl.; experiment: Preemergence weed control under flooded paddy conditions, MOOVA (Monochoria); type: in vivo; settings: preemergence, flooded paddy, rated three to four weeks after treatment

SMILES	CYPIR herbicidal effect rating (Cyperus iria; Rate 0.0320 kg/ha)	CYPIR herbicidal effect rating (Cyperus iria; Rate 0.0620 kg/ha)	CYPIR herbicidal effect rating (Cyperus iria; Rate 0.1250 kg/ha)	CYPIR herbicidal effect rating (Cyperus iria; Rate 0.2500 kg/ha)	CYPIR herbicidal effect rating (Cyperus iria; Rate 0.5000 kg/ha)	ECHORC herbicidal effect rating ([1]; Rate 0.0320 kg/ha)	ECHORC herbicidal effect rating ([1]; Rate 0.0620 kg/ha)	ECHORC herbicidal effect rating ([1]; Rate 0.1250 kg/ha)	ECHORC herbicidal effect rating ([1]; Rate 0.2500 kg/ha)	ECHORC herbicidal effect rating ([1]; Rate 0.5000 kg/ha)	CYPSE herbicidal effect rating ([2]; Rate 0.5000 kg/ha)	SAGPY herbicidal effect rating (Sagittaria pygmaea, L.; Rate 0.0320 kg/ha)	SAGPY herbicidal effect rating (Sagittaria pygmaea, L.; Rate 0.0620 kg/ha)	SAGPY herbicidal effect rating (Sagittaria pygmaea, L.; Rate 0.1250 kg/ha)	SAGPY herbicidal effect rating (Sagittaria pygmaea, L.; Rate 0.5000 kg/ha)	ORYSAT herbicidal effect rating ([3]; Rate 0.0320 kg/ha)	ORYSAT herbicidal effect rating ([3]; Rate 0.0620 kg/ha)	ORYSAT herbicidal effect rating ([3]; Rate 0.1250 kg/ha)	ORYSAT herbicidal effect rating ([3]; Rate 0.2500 kg/ha)	ORYSAT herbicidal effect rating ([3]; Rate 0.5000 kg/ha)	further results
Cn1c(C(F)(F)F)cc(=O)n(-c2ccc3snc(/C=N/O)c3c2)c1=O [Example 278, 1,2-Benzisothiazole-3-carboxaldehyde, 5-[3,6-dihydro-3-methyl-2,6-dioxo-4-(trifluoromethyl)-1(2H)-pyrimidinyl]-, 3-oxime, (E)-]	0.0	2.0	7.0	9.0	9.0	0.0	6.1	7.4	8.0	9.0	9.0	0.0	0.0	0.0	9.0	2.0	3.0	4.0	7.0	8.0	CYPSE herbicidal effect rating ([2]; Rate 0.0320 kg/ha): 0.0; CYPSE herbicidal effect rating ([2]; Rate 0.0620 kg/ha): 0.0; CYPSE herbicidal effect rating ([2]; Rate 0.1250 kg/ha): 2.0; CYPSE herbicidal effect rating ([2]; Rate 0.2500 kg/ha): 4.0; SAGPY herbicidal effect rating (Sagittaria pygmaea, L.; Rate 0.2500 kg/ha): 2.0; MOOVA herbicidal effect rating ([4]; Rate 0.0320 kg/ha): 6.0; MOOVA herbicidal effect rating ([4]; Rate 0.0620 kg/ha): 8.0; MOOVA herbicidal effect rating ([4]; Rate 0.1250 kg/ha): 9.0; MOOVA herbicidal effect rating ([4]; Rate 0.2500 kg/ha): 9.0; MOOVA herbicidal effect rating ([4]; Rate 0.5000 kg/ha): 9.0
COC(=O)/C=C/c1nsc2ccc(-n3c(=O)cc(C(F)(F)F)n(C)c3=O)cc12 [Example 279, 1,2-Benzisothiazole-3-acrylic acid, 5-[3,6-dihydro-3-methyl-2,6-dioxo-4-(trifluoromethyl)-1(2H)-pyrimidinyl]-, methyl ester, (E)-]	0.0	0.0	2.0	6.0	9.0	0.0	5.7	6.1	6.0	7.0	5.0	0.0	0.0	0.0	9.0	2.0	3.0	4.0	4.0	6.0	CYPSE herbicidal effect rating ([2]; Rate 0.0320 kg/ha): 0.0; CYPSE herbicidal effect rating ([2]; Rate 0.0620 kg/ha): 0.0; CYPSE herbicidal effect rating ([2]; Rate 0.1250 kg/ha): 0.0; SAGPY herbicidal effect rating (Sagittaria pygmaea, L.; Rate 0.2500 kg/ha): 4.0; MOOVA herbicidal effect rating ([4]; Rate 0.1250 kg/ha): 8.0; MOOVA herbicidal effect rating ([4]; Rate 0.2500 kg/ha): 9.0; MOOVA herbicidal effect rating ([4]; Rate 0.5000 kg/ha): 9.0
C#CCOC(=O)COc1c(-c2nsc3ccc(-n4c(=O)cc(C(F)(F)F)n(C)c4=O)cc23)ccc(C)c1C [Example 280, Acetic acid, {{6-[5-[3,6-dihydro-3-methyl-2,6-dioxo-4-(trifluoromethyl)-1(2H)-pyrimidinyl]-1,2-benzisothiazol-3-yl}-2,3-xylyl}oxy}-, 2-propynyl ester]	2.0	6.0	8.0	9.0	9.0	0.0	5.7	7.6	9.0	9.0	3.0	0.0	0.0	2.0	9.0	3.0	3.0	7.0	8.0	9.0	CYPSE herbicidal effect rating ([2]; Rate 0.0320 kg/ha): 0.0; CYPSE herbicidal effect rating ([2]; Rate 0.0620 kg/ha): 0.0; CYPSE herbicidal effect rating ([2]; Rate 0.1250 kg/ha): 0.0; CYPSE herbicidal effect rating ([2]; Rate 0.2500 kg/ha): 2.0; SAGPY herbicidal effect rating (Sagittaria pygmaea, L.; Rate 0.2500 kg/ha): 9.0; MOOVA herbicidal effect rating ([4]; Rate 0.0320 kg/ha): 9.0; MOOVA herbicidal effect rating ([4]; Rate 0.0620 kg/ha): 9.0; MOOVA herbicidal effect rating ([4]; Rate 0.1250 kg/ha): 9.0; MOOVA herbicidal effect rating ([4]; Rate 0.2500 kg/ha): 9.0; MOOVA herbicidal effect rating ([4]; Rate 0.5000 kg/ha): 9.0
Cn1c(C(F)(F)F)cc(=O)n(-c2ccc3snc(-c4ccc(OCC(=O)O)cc4)c3c2)c1=O [Example 281, Acetic acid, {p-{5-[3,6-dihydro-3-methyl-2,6-dioxo-4-(trifluoromethyl)-1(2H)-pyrimidinyl]-1,2-benzisothiazol-3-yl}phenoxy}-]	4.0	8.0	9.0	9.0	9.0	0.0	5.9	7.1	9.0	7.0	9.0	0.0	0.0	2.0	9.0	0.0	2.0	4.0	6.0	4.0	CYPSE herbicidal effect rating ([2]; Rate 0.0320 kg/ha): 9.0; CYPSE herbicidal effect rating ([2]; Rate 0.0620 kg/ha): 9.0; CYPSE herbicidal effect rating ([2]; Rate 0.1250 kg/ha): 9.0; CYPSE herbicidal effect rating ([2]; Rate 0.2500 kg/ha): 9.0; SAGPY herbicidal effect rating (Sagittaria pygmaea, L.; Rate 0.2500 kg/ha): 8.0; MOOVA herbicidal effect rating ([4]; Rate 0.0320 kg/ha): 9.0; MOOVA herbicidal effect rating ([4]; Rate 0.0620 kg/ha): 9.0; MOOVA herbicidal effect rating ([4]; Rate 0.1250 kg/ha): 9.0; MOOVA herbicidal effect rating ([4]; Rate 0.2500 kg/ha): 9.0; MOOVA herbicidal effect rating ([4]; Rate 0.5000 kg/ha): 9.0
Cn1c(C(F)(F)F)cc(=O)n(-c2ccc3snc(CS(=O)(=O)CC(=O)O)c3c2)c1=O [Example 282, Acetic acid, {{{5-[3,6-dihydro-3-methyl-2,6-dioxo-4-(trifluoromethyl)-1(2H)-pyrimidinyl]-1,2-benzisothiazol-3-yl}methyl}sulfonyl}-]	4.0	8.0	8.0	8.0	9.0	0.0	0.0	1.9	0.0	0.0	0.0	0.0	0.0	0.0	0.0	2.0	3.0	4.0	4.0	0.0	CYPSE herbicidal effect rating ([2]; Rate 0.0320 kg/ha): 0.0; CYPSE herbicidal effect rating ([2]; Rate 0.0620 kg/ha): 0.0; CYPSE herbicidal effect rating ([2]; Rate 0.1250 kg/ha): 0.0; CYPSE herbicidal effect rating ([2]; Rate 0.2500 kg/ha): 0.0; SAGPY herbicidal effect rating (Sagittaria pygmaea, L.; Rate 0.2500 kg/ha): 0.0; MOOVA herbicidal effect rating ([4]; Rate 0.0320 kg/ha): 6.0; MOOVA herbicidal effect rating ([4]; Rate 0.0620 kg/ha): 9.0; MOOVA herbicidal effect rating ([4]; Rate 0.1250 kg/ha): 9.0; MOOVA herbicidal effect rating ([4]; Rate 0.2500 kg/ha): 9.0; MOOVA herbicidal effect rating ([4]; Rate 0.5000 kg/ha): 9.0
Cn1c(C(F)(F)F)cc(=O)n(-c2ccc3snc(CSCC(=O)O)c3c2)c1=O [Example 283, Acetic acid, {{{5-[3,6-dihydro-3-methyl-2,6-dioxo-4-(trifluoromethyl)-1(2H)-pyrimidinyl]-1,2-benzisothiazol-3-yl}methyl}thio}-]	0.0	4.0	8.0	9.0	9.0	0.0	3.4	3.4	6.0	6.0	0.0	0.0	0.0	0.0	9.0	2.0	2.0	4.0	5.0	4.0	MOOVA herbicidal effect rating ([4]; Rate 0.0320 kg/ha): 2.0; MOOVA herbicidal effect rating ([4]; Rate 0.0620 kg/ha): 8.0; MOOVA herbicidal effect rating ([4]; Rate 0.1250 kg/ha): 9.0; MOOVA herbicidal effect rating ([4]; Rate 0.2500 kg/ha): 9.0; MOOVA herbicidal effect rating ([4]; Rate 0.5000 kg/ha): 9.0
